According to ChEMBL document CHEMBL4017472, “New modified 2-aminobenzimidazole nucleosides: Synthesis and evaluation of their activity against herpes simplex virus type 1” (Bioorg Med Chem Lett, 2017):

Key:
Human alphaherpesvirus 1 [1] = experiment: Antiviral activity against acyclovir and foscarnet-resistant HSV-1 L2 infected in African green monkey Vero E6 cells assessed as viral reproduction at 207 uM measured after 48 hrs post infection by gentian violet staining based plaque reduction assay (reference value: 5.92 +/- 0.11 log10PFU/ml); format: functional, Vero C1008
Human alphaherpesvirus 1 [2] = experiment: Antiviral activity against HSV-1 L2 infected in African green monkey Vero E6 cells assessed as viral reproduction at 104 uM measured after 48 hrs post infection by gentian violet staining based plaque reduction assay (reference value: 6.91 +/- 0.05 log10PFU/ml); format: functional, Vero C1008
Human alphaherpesvirus 1 [3] = experiment: Potency index, ratio of ribavirin IC50 to compound IC50 for HSV-1 L2 infected in African green monkey Vero E6 cells; format: functional, Vero C1008
Human alphaherpesvirus 1 [4] = experiment: Antiviral activity against acyclovir and cidofovir-resistant HSV-1 L2 infected in African green monkey Vero E6 cells assessed as viral reproduction at 415 uM measured after 48 hrs post infection by gentian violet staining based plaque reduction assay (reference value: 6.52 +/- 0.11 log10PFU/ml); format: functional, Vero C1008
Human alphaherpesvirus 1 [5] = experiment: Antiviral activity against HSV-1 L2/Rp-ACV/2 infected in African green monkey Vero E6 cells assessed as reduction in virus-induced cytopathic effect; format: functional; details: Human alphaherpesvirus 1, L2/Rp-ACV/2, Vero C1008
Human alphaherpesvirus 1 [6] = experiment: Antiviral activity against acyclovir and cidofovir-resistant HSV-1 L2 infected in African green monkey Vero E6 cells assessed as viral reproduction at 207 uM measured after 48 hrs post infection by gentian violet staining based plaque reduction assay (reference value: 6.52 +/- 0.11 log10PFU/ml); format: functional, Vero C1008
[7] = Cytotoxicity against African green monkey Vero E6 cells measured after 3 days by trypan blue assay; format: cell-based, Vero C1008; details: chlorocebus sabaeus
Human alphaherpesvirus 1 [8] = experiment: Antiviral activity against HSV-1 L2/Rp-ACV/2 infected in African green monkey Vero E6 cells assessed as inhibition of viral reproduction measured after 48 hrs post infection by gentian violet staining based plaque reduction assay; format: functional; details: Vero C1008
Human alphaherpesvirus 1 [9] = experiment: Antiviral activity against acyclovir and foscarnet-resistant HSV-1 L2 infected in African green monkey Vero E6 cells assessed as viral reproduction at 104 uM measured after 48 hrs post infection by gentian violet staining based plaque reduction assay (reference value: 5.92 +/- 0.11 log10PFU/ml); format: functional, Vero C1008
Human alphaherpesvirus 1 [10] = experiment: Antiviral activity against HSV-1 L2/Rp-ACV/2 infected in African green monkey Vero E6 cells assessed as viral reproduction at 52 uM measured after 48 hrs post infection by gentian violet staining based plaque reduction assay (reference value: 6.05 +/- 0.1 log10PFU/ml); format: functional, Vero C1008
Human alphaherpesvirus 1 [11] = experiment: Antiviral activity against acyclovir-resistant HSV-1 L2 infected in African green monkey Vero E6 cells assessed as viral reproduction at 415 uM measured after 48 hrs post infection by gentian violet staining based plaque reduction assay (reference value: 5.95 +/- 0.03 log10PFU/ml); format: functional, Vero C1008
[12] = Selectivity index, ratio of MCC for African green monkey Vero E6 cells to IC50 for HSV-1 F+ infected in African green monkey Vero E6 cells; set-up: species or system Vero C1008

## Nc1nc2cc(F)c(F)cc2n1[C@@H]1O[C@H](CO)[C@@H](O)[C@H]1O
Human alphaherpesvirus 1 [1]
  Activity: 4.47 log10PFU/ml
Human alphaherpesvirus 1 [2]
  Activity: 5.63 log10PFU/ml
Human alphaherpesvirus 1 [3]
  Ratio IC50: 4
Human alphaherpesvirus 1 [4]
  Activity: 4.61 log10PFU/ml
Human alphaherpesvirus 1 [5]
  IC50: 104 µM
  IC95: 830 µM
Human alphaherpesvirus 1 [6]
  Activity: 5.06 log10PFU/ml
[7]
  MCC at 72 h: > 3.32 mM
Human alphaherpesvirus 1 [8]
  inhibition: Dose-dependent effect
Human alphaherpesvirus 1 [9]
  Activity: 4.8 log10PFU/ml
Human alphaherpesvirus 1 [10]
  Activity: 5.32 log10PFU/ml
Human alphaherpesvirus 1 [11]
  Activity: 3.45 log10PFU/ml
[12]
  Selectivity Index: >16
